Assay: Solubility of polymerization initiator in the acrylamide compound having an ester structure
Assay type: physicochemical

Cc1cc(C)c(C(=O)P(=O)(C(=O)c2c(C)cc(C)cc2C)c2ccccc2)c(C)c1 [B2-1, Bis(2,4,6-trimethylbenzoyl) phenyl phosphine oxide]
solubility in the acrylamide compound having an ester structure: poor solubility

Source: patent US11529302B2, “Composition, artificial nail composition, nail decoration material, artificial nail, stored container, image forming apparatus, and image forming method” (RICOH COMPANY, LTD., priority 2018, dated 2022)
